For this assay, the target named is T1, Human IP6K1 (Homo sapiens, UniProt Q92551).
T1 construct: GST (N, cleaved yes); made in house; host or cells: C43 E. coli, pGEX-6P-2
Nature of the assay: IP6K1 high-throughput screen of the Sigma LOPAC (ADP-Glo Max, single point).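 Further: final compound concentration 10µM in 5% DMSO.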 In kind it is biochemical. Background: ADP-Glo first removes unused ATP, then detects ADP through luciferase.

Setting [1] is: LOPAC single-point screen, ADP-Glo Max luminescence raw signal per well.
[2] abbreviates: LOPAC single-point screen, Z-score relative to plate average and StDev.
Setting [3] is: LOPAC single-point screen, ADP-Glo Max raw signal per well.
The mark [4] stands for this setting: LOPAC single-point screen, Z-score from raw signal with plate average and StDev.
[5] abbreviates: LOPAC single-point screen, Z-score from plate average and StDev.
The mark [6] stands for this setting: Sigma LOPAC single-point screen, ADP-Glo Max raw signal per well.
Where [7] appears, read: Sigma LOPAC single-point screen, Z-score from plate average and StDev.
[8] abbreviates: LOPAC single-point screen, Z-score against plate average and StDev.

Where a name gives a salt, the structure may show the parent alone. Read-outs that look alike come from different tables or passages of the source.

T1 sequence (Q92551 whole entry): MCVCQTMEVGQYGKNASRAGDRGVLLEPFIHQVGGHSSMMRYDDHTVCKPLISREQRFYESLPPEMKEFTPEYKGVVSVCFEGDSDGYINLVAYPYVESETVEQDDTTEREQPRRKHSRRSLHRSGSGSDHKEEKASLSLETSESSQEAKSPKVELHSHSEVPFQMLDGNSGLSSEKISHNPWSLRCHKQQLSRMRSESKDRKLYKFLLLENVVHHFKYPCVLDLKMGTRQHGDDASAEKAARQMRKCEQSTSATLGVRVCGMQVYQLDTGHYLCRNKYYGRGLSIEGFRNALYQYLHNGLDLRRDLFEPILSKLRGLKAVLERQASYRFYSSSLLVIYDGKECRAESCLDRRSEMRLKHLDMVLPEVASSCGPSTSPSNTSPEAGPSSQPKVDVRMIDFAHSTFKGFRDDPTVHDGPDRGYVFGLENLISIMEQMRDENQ

As to `O=[N+]([O-])c1ccc(O[C@@H]2O[C@H](CO)[C@@H](O)[C@H](O)[C@H]2F)c([N+](=O)[O-])c1`, the “Raw Signal” value under setting [1] is on record as 50009. The Z-score under setting [2] is given as -1.048.
Take `CN(C)CCCN1c2ccccc2Sc2ccc(C(F)(F)F)cc21` [Triflupromazine hydrochloride]: the “Raw Signal” value under setting [3] turned out to be 54007. This molecule yielded a Z-score under setting [4] of -0.3918.
For `CC(COc1ccc(/C=C/c2ccccc2)cc1)[N+](C)(C)C.[I-]` (stereo not shown), under setting [1], the “Raw Signal” value is reported as 63739. In addition, the Z-score under setting [5] was found to be 1.499.
For the molecule `NC(=O)c1cc[n+](CC2=C(C(=O)[O-])N3C(=O)[C@@H](NC(=O)C(c4ccccc4)S(=O)(=O)[O-])[C@H]3SC2)cc1.O.[Na+]` (stereo partly shown) [Cefsulodin sodium salt hydrate], the “Raw Signal” value under setting [3] is listed as 56779. This molecule also came in with a Z-score under setting [4] of -0.1997.
As to `COc1ccccc1N1CCN(CC(O)COc2cccc3ccccc23)CC1.Cl.Cl` (stereo not shown) [Naftopidil dihydrochloride], the “Raw Signal” value under setting [6] was found to be 57488. The Z-score under setting [7] is 0.52.
In the same order, the values of `Cc1cc(O)c2c(c1)C(=O)c1cc(O)cc(O)c1C2=O` [Emodin] are 61234 and 1.232.
The like results for `Cc1ccc(S(=O)(=O)N[C@@H](Cc2ccccc2)C(=O)CCl)cc1` were, in that order, 59222 and 0.6213.
With `CC1Cc2cc3c(cc2C(c2ccc(N)cc2)=NN1)OCO3` (stereo not shown) [GYKI 52895], the “Raw Signal” value under setting [1] was 63898. Under setting [5], the Z-score is recorded as 1.773.
The like results for `Nc1ncnc2c1ncn2C1CCCO1` (stereo not shown) [SQ 22536] were, in that order, 63004 and 1.356.
As to `C=C(C)[C@H]1CC=C(C(=O)O)CC1` [(-)-Perillic acid], the “Raw Signal” value under setting [6] came to 58838. The Z-score under setting [7] is 0.5467.
As for `Br.CCSC(=N)N` [S-Ethylisothiourea hydrobromide], the “Raw Signal” value under setting [3] is listed as 55596. The molecule further had a Z-score under setting [8] of 0.08712.
As to `CN(C)CCOC(C)(c1ccccc1)c1ccccn1` (stereo not shown) [Doxylamine succinate], under setting [1], the “Raw Signal” value worked out at 49925. The same molecule yielded a Z-score under setting [2] of -1.065.
As for `CC(=O)c1c(O)c(C)c(O)c(Cc2c(O)c3c(c(C(=O)/C=C/c4ccccc4)c2O)OC(C)(C)C=C3)c1O` [Rottlerin], the “Raw Signal” value under setting [3] is given as 55469. Under setting [4], this molecule returned a Z-score of -0.1078.
As for `COC1=C(OC)C(=O)c2ccccc2C1=O` [2,3-Dimethoxy-1,4-naphthoquinone], under setting [6], the “Raw Signal” value is 57485. The molecule further yielded a Z-score under setting [7] of 0.4708.
As for `CCN1C[C@]2(C)CC[C@H](O)[C@]34C1[C@@H](C[C@H]23)[C@@]1(O)C[C@H](OC)[C@H]2C[C@@H]4[C@@H]1[C@H]2O` [Karakoline], the “Raw Signal” value under setting [3] is 53043. Under setting [4], this molecule registered a Z-score of -0.2269.
For `CCN(CC)CCCCCCCCOC(=O)c1cc(OC)c(OC)c(OC)c1.Cl` [TMB-8 hydrochloride], the “Raw Signal” value under setting [3] worked out at 59541. The same molecule displayed a Z-score under setting [8] of 0.2867.
Adenosine 3 ,5 -cyclic monophosphate: the “Raw Signal” value is recorded as 66195 and the Z-score is given as 1.459.
`CNc1ncnc2c1ncn2[C@@H]1O[C@H](CO)[C@@H](O)[C@H]1O` [N6-Methyladenosine]: under setting [1], the “Raw Signal” value is given as 48943. For the same molecule, under setting [2], the Z-score is -0.9158.
Regarding `CCCCCCN(CCCCCC)C(=O)Cc1c(-c2ccc(F)cc2)[nH]c2ccccc12`, the “Raw Signal” value under setting [3] turned out to be 56591. The molecule also registered a Z-score under setting [8] of 0.2892.
Take `N#CC(=C(/N)Sc1ccccc1N)/C(C#N)=C(/N)Sc1ccccc1N` [U0126]: under setting [3], the “Raw Signal” value was 55334. Besides, the Z-score under setting [4] was -0.134.
Consider R(-)-Me5, for which the “Raw Signal” value under setting [3] was 53002. The molecule also showed a Z-score under setting [4] of -0.2338.
With `O=C(O)c1cc2cc(F)ccc2[nH]1` [5-Fluoroindole-2-carboxylic acid], the “Raw Signal” value is recorded as 61098 and the Z-score turned out to be 0.5609.
For the molecule `O=C(Cc1ccc(Cl)c(Cl)c1)OCCN1CCCC1` [AC 915 oxalate], under setting [3], the “Raw Signal” value came out at 57662. Under setting [8], this molecule gave a Z-score of -0.04423.
In the case of `O=S(=O)(c1cccc2c(I)cccc12)N1CCCNCC1` [ML-7], the “Raw Signal” value under setting [1] was 65221. Besides, under setting [5], the Z-score is 1.8193.
`CCC(=O)c1ccc2c(c1)N(CCCN(C)C)c1ccccc1S2` [Propionylpromazine hydrochloride]: the “Raw Signal” value under setting [3] was 56049. This molecule had a Z-score under setting [8] of 0.004895.
The like results for `Cl.N[C@@H](CCl)C(=O)O` [beta-Chloro-L-alanine hydrochloride] were, in that order, 58972 and 0.1865.
On to `CN(Cc1cnc2nc(N)nc(N)c2n1)c1ccc(C(=O)N[C@@H](CCC(=O)O)C(=O)O)cc1` [Methotrexate], for which the “Raw Signal” value under setting [6] is 60039. Under setting [7], this molecule showed a Z-score of 0.3744.
As for `C[C@H](CCC(=O)NCCS(=O)(=O)O)[C@H]1CC[C@H]2[C@@H]3[C@H](O)C[C@@H]4C[C@H](O)CC[C@]4(C)[C@H]3C[C@H](O)[C@]12C` [Sodium Taurocholate], the “Raw Signal” value was 58351 and the Z-score amounted to 0.07713.
As for `N[C@@H](C(=O)N[C@@H]1C(=O)N2C(C(=O)O)=C(Cl)CS[C@H]12)c1ccccc1` [Cefaclor], the “Raw Signal” value under setting [3] stood at 57158. The Z-score under setting [4] is recorded as -0.133.
For `Cl.NC(N)=NCCNS(=O)(=O)c1cccc2cnccc12` [HA-1004 hydrochloride], the “Raw Signal” value under setting [1] worked out at 50838. Besides, the Z-score under setting [2] was -0.8792.
As for `CCC(NC(C)C)C(O)c1ccc(O)c(O)c1.CS(=O)(=O)O` (stereo not shown) [Isotharine mesylate], the “Raw Signal” value under setting [3] came out at 54100. Under setting [8], this molecule gave a Z-score of -0.04932.
For the molecule `NC(N)=NCc1cccc(I)c1.NC(N)=NCc1cccc(I)c1.O=S(=O)(O)O` [m-Iodobenzylguanidine hemisulfate], the “Raw Signal” value under setting [6] turned out to be 60474. The same molecule returned a Z-score under setting [7] of 1.022.
Turning to `C[C@@](Cc1ccc(O)c(O)c1)(NN)C(=O)O` [S-(-)-Carbidopa], under setting [3], the “Raw Signal” value was 55065. This molecule displayed a Z-score under setting [8] of -0.02072.
On to `CNC(=O)[C@H]1O[C@@H](n2cnc3c(NCc4ccc(N)cc4)ncnc32)[C@H](O)[C@@H]1O` [AB-MECA], for which the “Raw Signal” value under setting [1] is on record as 53262. The Z-score under setting [2] was -0.8192.
With S(-)-DS 121 hydrochloride, the “Raw Signal” value under setting [3] was 56472. The same molecule showed a Z-score under setting [8] of 0.265.
Regarding `CCCCCCCC/C=C\CCCCCCCC(=O)O` [Oleic Acid], under setting [3], the “Raw Signal” value amounted to 53829. Besides, the Z-score under setting [4] is -0.09485.
With `CCCN(CCC)[C@@H]1CCc2c(F)ccc(O)c2C1.Cl` [R(+)-UH-301 hydrochloride], the “Raw Signal” value under setting [3] is on record as 54775. Moreover, under setting [4], the Z-score was -0.2426.
For the molecule `O=c1c(O)c(-c2ccc(O)cc2O)oc2cc(O)cc(O)c12` [Morin], the “Raw Signal” value under setting [1] is reported as 34376. Besides, the Z-score under setting [2] is reported as -3.363.
With `CCOC(=O)[C@]12CC1/C(=N\O)c1ccccc1O2` (mixture of isomers) [CPCCOEt], under setting [3], the “Raw Signal” value came to 59801. Also, the Z-score under setting [8] worked out at 0.3325.
For the molecule `CCn1cc(C(=O)O)c(=O)c2cc(F)c(N3CCNC(C)C3)c(F)c21` (stereo not shown) [Lomefloxacin hydrochloride], the “Raw Signal” value under setting [1] amounted to 49930. Further, the Z-score under setting [2] is -0.75.
Take `Cn1cc(C2=C(c3ccc(Cl)cc3Cl)C(=O)NC2=O)c2ccccc21` [SB 216763]: under setting [6], the “Raw Signal” value was 56670. Under setting [7], this molecule returned a Z-score of 0.3825.
Turning to `O=c1[nH]cc(F)c(=O)[nH]1` [5-Fluorouracil], the “Raw Signal” value under setting [1] is listed as 52294. This molecule also had a Z-score under setting [2] of -0.5835.
Take `CC[C@H](NC(=O)c1c(C)c(-c2ccccc2)nc2ccccc12)c1ccccc1` [SB 222200]: the “Raw Signal” value under setting [3] turned out to be 57369. For the same molecule, the Z-score under setting [4] is on record as -0.09583.
Turning to `Cl.c1ccc(CN(CC2=NCCN2)c2ccccc2)cc1` [Antozoline hydrochloride], the “Raw Signal” value under setting [1] worked out at 54212. The Z-score under setting [2] is on record as -0.6519.
Consider `Oc1ccc(-c2nc(-c3ccncc3)c(-c3ccc(F)cc3)[nH]2)cc1` [SB 202190], for which the “Raw Signal” value under setting [3] is 58086. The molecule also had a Z-score under setting [8] of 0.03045.
As to `CC[N+](CC)(CC)CCOc1ccc(/C=C/c2ccccc2)cc1` [MG 624], under setting [6], the “Raw Signal” value was found to be 57360. The Z-score under setting [7] is listed as 0.4984.
The like results for `NC(=O)C1=CN([C@@H]2O[C@H](COP(=O)([O-])OP(=O)([O-])OC[C@H]3O[C@@H](n4cnc5c(N)ncnc54)[C@H](OP(=O)([O-])[O-])[C@@H]3O)[C@@H](O)[C@H]2O)C=CC1.[Na+].[Na+].[Na+].[Na+]` [NADPH tetrasodium] were, in that order, 57869 and 0.584.
As to `CCNC(=O)[C@H]1O[C@@H](n2cnc3c(N)ncnc32)[C@H](O)[C@@H]1O` [5 -N-Ethylcarboxamidoadenosine], under setting [3], the “Raw Signal” value is 52988. Further, under setting [4], the Z-score is recorded as -0.4425.
`Clc1cccc(Cl)c1N=C1NCCN1` [Clonidine hydrochloride]: the “Raw Signal” value under setting [1] came out at 54432. Moreover, the Z-score under setting [2] was -0.6131.
Consider `C[C@@H]1OC[C@H](C[N+](C)(C)C)O1.[I-]` [(+)-cis-Dioxolane iodide], for which the “Raw Signal” value under setting [3] is listed as 55108. Under setting [8], this molecule yielded a Z-score of -0.01199.
As to `CCN(CC)CCNC(=O)c1ccc(N)cc1` [Procainamide hydrochloride], the “Raw Signal” value under setting [1] was 51793. The Z-score under setting [2] is given as -0.822.
As to `CN1CCN(C2Cc3ccccc3Sc3ccc(Cl)cc32)CC1.O=C(O)/C=C\C(=O)O` (racemic) [(±)-Octoclothepin maleate], the “Raw Signal” value under setting [6] was determined as 60782. Further, the Z-score under setting [7] amounted to 1.073.
As for `Cn1c(=O)c2c(nc(C=Cc3cccc(Cl)c3)n2C)n(C)c1=O` [8-(3-Chlorostyryl)caffeine], the “Raw Signal” value under setting [3] came out at 56359. The Z-score under setting [8] is 0.2421.
